Assay results published in patent US20240360177A1, “PEPTIDES WITH ANTIMICROBIAL ACTIVITIES” (priority 2021, published 2024).
Converted amounts (≈) assume the structure as drawn. Starred links: 1 amine or outer side, 2 acyl side, 3 side chain; linkers in the order of their positions; H or OH if unused. Non-standard residues stand in square brackets, D forms with d. Residues, ends and D or L forms follow the SMILES beside them. Groups on a side chain read outwards from the residue. N(2-Aminoethyl)Gly = O=C(CN(CCN[*:3])[*:1])[*:2]; NBuGly = CCCCNCC(=O)O; Aoc = NCCCCCCCC(=O)O; AEA = NCCOCC(=O)O; Ava = NCCCCC(=O)O; βAla = NCCC(=O)O

What was measured:
Conditions in all cases: 24 h
C. tropicalis = tested on: C. tropicalis
C. glabrata = tested on: C. glabrata
C. dubliniensis = tested on: C. dubliniensis
C. albicans = tested on: C. albicans
C. parapsilosis = tested on: C. parapsilosis

| SMILES | MIC C. tropicalis (C. tropicalis) | MIC C. glabrata (C. glabrata) | MIC C. dubliniensis (C. dubliniensis) | MIC C. albicans (C. albicans) | MIC C. parapsilosis (C. parapsilosis) |
| --- | --- | --- | --- | --- | --- |
| N=C(N)NCCC[C@H](NC(=O)[C@@H](CCCNC(=N)N)NC(=O)[C@H](CCCNC(=N)N)NC(=O)[C@@H](CCCNC(=N)N)NC(=O)CCNC(=O)[C@H](CCCNC(=N)N)NC(=O)[C@@H](CCCNC(=N)N)NC(=O)[C@H](CCCNC(=N)N)NC(=O)[C@@H](CCCNC(=N)N)NC(=O)CCNC(=O)[C@@H](CCCNC(=N)N)NC(=O)[C@H](CCCNC(=N)N)NC(=O)[C@@H](CCCNC(=N)N)NC(=O)CCNC(=O)[C@H](CCCNC(=N)N)NC(=O)[C@H](CCCNC(=N)N)NC(=O)[C@@H](N)CCCNC(=N)N)C(N)=O [SEQ ID NO: 9, RRR-(Apr)-rRr-(Apr)-rRrR-(Apr)-rRrR-NH2] (H-RRR[βAla][dR]R[dR][βAla][dR]R[dR]R[βAla][dR]R[dR]R-NH2) | 0.5 µg/mL (≈ 0.207 µM) | 2 µg/mL (≈ 0.828 µM) | 0.5 µg/mL (≈ 0.207 µM) | 0.5 µg/mL (≈ 0.207 µM) | 0.5 µg/mL (≈ 0.207 µM) |
| N=C(N)NCCC[C@@H](N)C(=O)N[C@@H](CCCNC(=N)N)C(=O)N[C@H](CCCNC(=N)N)C(=O)NCCC(=O)N[C@@H](CCCNC(=N)N)C(=O)N[C@@H](CCCNC(=N)N)C(=O)N[C@@H](CCCNC(=N)N)C(=O)NCCC(=O)N[C@H](CCCNC(=N)N)C(=O)N[C@@H](CCCNC(=N)N)C(=O)N[C@H](CCCNC(=N)N)C(=O)N[C@@H](CCCNC(=N)N)C(=O)NCCC(=O)N[C@H](CCCNC(=N)N)C(=O)N[C@@H](CCCNC(=N)N)C(=O)N[C@H](CCCNC(=N)N)C(=O)N[C@@H](CCCNC(=N)N)C(N)=O [SEQ ID NO: 10, rRr-(Apr)-RRR-(Apr)-rRrR-(Apr)-rRrR-NH2] (H-[dR]R[dR][βAla]RRR[βAla][dR]R[dR]R[βAla][dR]R[dR]R-NH2) | 0.5 µg/mL (≈ 0.207 µM) | 2 µg/mL (≈ 0.828 µM) | 0.5 µg/mL (≈ 0.207 µM) | 0.5 µg/mL (≈ 0.207 µM) | 0.5 µg/mL (≈ 0.207 µM) |
| N=C(N)NCCC[C@@H](N)C(=O)N[C@@H](CCCNC(=N)N)C(=O)N[C@H](CCCNC(=N)N)C(=O)NCCC(=O)N[C@H](CCCNC(=N)N)C(=O)N[C@@H](CCCNC(=N)N)C(=O)N[C@H](CCCNC(=N)N)C(=O)NCCC(=O)N[C@@H](CCCNC(=N)N)C(=O)N[C@@H](CCCNC(=N)N)C(=O)N[C@@H](CCCNC(=N)N)C(=O)N[C@@H](CCCNC(=N)N)C(=O)NCCC(=O)N[C@H](CCCNC(=N)N)C(=O)N[C@@H](CCCNC(=N)N)C(=O)N[C@H](CCCNC(=N)N)C(=O)N[C@@H](CCCNC(=N)N)C(N)=O [SEQ ID NO: 11, rRr-(Apr)-rRr-(Apr)-RRRR-(Apr)-rRrR-NH2] (H-[dR]R[dR][βAla][dR]R[dR][βAla]RRRR[βAla][dR]R[dR]R-NH2) | 2 µg/mL (≈ 0.828 µM) | >32 µg/mL | 0.5 µg/mL (≈ 0.207 µM) | 1 µg/mL (≈ 0.414 µM) | 0.5 µg/mL (≈ 0.207 µM) |
| N=C(N)NCCC[C@@H](N)C(=O)N[C@@H](CCCNC(=N)N)C(=O)N[C@H](CCCNC(=N)N)C(=O)NCCC(=O)N[C@H](CCCNC(=N)N)C(=O)N[C@@H](CCCNC(=N)N)C(=O)N[C@H](CCCNC(=N)N)C(=O)NCCC(=O)N[C@H](CCCNC(=N)N)C(=O)N[C@@H](CCCNC(=N)N)C(=O)N[C@H](CCCNC(=N)N)C(=O)N[C@@H](CCCNC(=N)N)C(=O)NCCC(=O)N[C@@H](CCCNC(=N)N)C(=O)N[C@@H](CCCNC(=N)N)C(=O)N[C@@H](CCCNC(=N)N)C(=O)N[C@@H](CCCNC(=N)N)C(N)=O [SEQ ID NO: 12, rRr-(Apr)-rRr-(Apr)-rRrR-(Apr)-RRRR-NH2] (H-[dR]R[dR][βAla][dR]R[dR][βAla][dR]R[dR]R[βAla]RRRR-NH2) | 1 µg/mL (≈ 0.414 µM) | >32 µg/mL | 0.5 µg/mL (≈ 0.207 µM) | 0.5 µg/mL (≈ 0.207 µM) | 0.5 µg/mL (≈ 0.207 µM) |
| N=C(N)NCCC[C@@H](N)C(=O)N[C@@H](CCCNC(=N)N)C(=O)N[C@H](CCCNC(=N)N)C(=O)NCCCCCCCC(=O)N[C@H](CCCNC(=N)N)C(=O)N[C@@H](CCCNC(=N)N)C(=O)N[C@H](CCCNC(=N)N)C(=O)NCCCCCCCC(=O)N[C@H](CCCNC(=N)N)C(=O)N[C@@H](CCCNC(=N)N)C(=O)N[C@H](CCCNC(=N)N)C(=O)N[C@@H](CCCNC(=N)N)C(=O)NCCCCCCCC(=O)N[C@H](CCCNC(=N)N)C(=O)N[C@@H](CCCNC(=N)N)C(=O)N[C@H](CCCNC(=N)N)C(=O)N[C@@H](CCCNC(=N)N)C(=O)O [SEQ ID NO: 30, rRr-(Aoa)-rRr-(Aoa)-rRrR-(Aoa)-rRrR] (H-[dR]R[dR][Aoc][dR]R[dR][Aoc][dR]R[dR]R[Aoc][dR]R[dR]R-OH) | 1 µg/mL (≈ 0.38 µM) | 1 µg/mL (≈ 0.38 µM) | 0.5 µg/mL (≈ 0.19 µM) | 1 µg/mL (≈ 0.38 µM) | 0.5 µg/mL (≈ 0.19 µM) |
| CCCCN(CC(=O)N[C@H](CCCNC(=N)N)C(=O)N[C@@H](CCCNC(=N)N)C(=O)N(CCCC)CC(=O)N[C@H](CCCNC(=N)N)C(=O)N[C@@H](CCCNC(=N)N)C(=O)N[C@H](CCCNC(=N)N)C(=O)N(CCCC)CC(=O)N[C@H](CCCNC(=N)N)C(=O)N[C@@H](CCCNC(=N)N)C(=O)N[C@H](CCCNC(=N)N)C(N)=O)C(=O)[C@H](CCCNC(=N)N)NC(=O)[C@H](N)CCCNC(=N)N [SEQ ID NO: 36, rR-(ButylGly)-rR-(ButylGly)-rRr-(ButylGly)-rRr-NH2] (H-[dR]R[NBuGly][dR]R[NBuGly][dR]R[dR][NBuGly][dR]R[dR]-NH2) | 2 µg/mL (≈ 1.04 µM) | 4 µg/mL (≈ 2.09 µM) | 2 µg/mL (≈ 1.04 µM) | 0.5 µg/mL (≈ 0.261 µM) | 16 µg/mL (≈ 8.34 µM) |
| N=C(N)NCCC[C@@H](N)C(=O)N[C@@H](CCCNC(=N)N)C(=O)N[C@H](CCCNC(=N)N)C(=O)NCCNCC(=O)N[C@H](CCCNC(=N)N)C(=O)N[C@@H](CCCNC(=N)N)C(=O)N[C@H](CCCNC(=N)N)C(=O)NCCCCC(=O)N[C@H](CCCNC(=N)N)C(=O)N[C@@H](CCCNC(=N)N)C(=O)N[C@H](CCCNC(=N)N)C(=O)N[C@@H](CCCNC(=N)N)C(=O)NCCCCC(=O)N[C@H](CCCNC(=N)N)C(=O)N[C@@H](CCCNC(=N)N)C(=O)N[C@H](CCCNC(=N)N)C(=O)N[C@@H](CCCNC(=N)N)C(N)=O [SEQ ID NO: 41, rRr-(Aeg)-rRr-(Ava)-rRrR-(Ava)-rRrR-NH2] (H-[N(2-Aminoethyl)Gly]([dR-Arg-dR])[dR]R[dR][Ava][dR]R[dR]R[Ava][dR]R[dR]R-NH2) | 1 µg/mL (≈ 0.4 µM) | 2 µg/mL (≈ 0.799 µM) | 0.5 µg/mL (≈ 0.2 µM) | 1 µg/mL (≈ 0.4 µM) | 1 µg/mL (≈ 0.4 µM) |
| N=C(N)NCCC[C@@H](N)C(=O)N[C@@H](CCCNC(=N)N)C(=O)N[C@H](CCCNC(=N)N)C(=O)NCCCCC(=O)N[C@H](CCCNC(=N)N)C(=O)N[C@@H](CCCNC(=N)N)C(=O)N[C@H](CCCNC(=N)N)C(=O)NCCNCC(=O)N[C@H](CCCNC(=N)N)C(=O)N[C@@H](CCCNC(=N)N)C(=O)N[C@H](CCCNC(=N)N)C(=O)N[C@@H](CCCNC(=N)N)C(=O)NCCCCC(=O)N[C@H](CCCNC(=N)N)C(=O)N[C@@H](CCCNC(=N)N)C(=O)N[C@H](CCCNC(=N)N)C(=O)N[C@@H](CCCNC(=N)N)C(N)=O [SEQ ID NO: 42, rRr-(Ava)-rRr-(Aeg)-rRrR-(Ava)-rRrR-NH2] | 0.5 µg/mL (≈ 0.2 µM) | 1 µg/mL (≈ 0.4 µM) | 0.5 µg/mL (≈ 0.2 µM) | 1 µg/mL (≈ 0.4 µM) | 0.5 µg/mL (≈ 0.2 µM) |
| N=C(N)NCCC[C@@H](N)C(=O)N[C@@H](CCCNC(=N)N)C(=O)N[C@H](CCCNC(=N)N)C(=O)NCCCCC(=O)N[C@H](CCCNC(=N)N)C(=O)N[C@@H](CCCNC(=N)N)C(=O)N[C@H](CCCNC(=N)N)C(=O)NCCCCC(=O)N[C@H](CCCNC(=N)N)C(=O)N[C@@H](CCCNC(=N)N)C(=O)N[C@H](CCCNC(=N)N)C(=O)N[C@@H](CCCNC(=N)N)C(=O)NCCNCC(=O)N[C@H](CCCNC(=N)N)C(=O)N[C@@H](CCCNC(=N)N)C(=O)N[C@H](CCCNC(=N)N)C(=O)N[C@@H](CCCNC(=N)N)C(N)=O [SEQ ID NO: 43, rRr-(Ava)-rRr-(Ava)-rRrR-(Aeg)-rRrR-NH2] | 0.5 µg/mL (≈ 0.2 µM) | 1 µg/mL (≈ 0.4 µM) | 0.5 µg/mL (≈ 0.2 µM) | 1 µg/mL (≈ 0.4 µM) | 0.5 µg/mL (≈ 0.2 µM) |
| N=C(N)NCCC[C@@H](N)C(=O)N[C@@H](CCCNC(=N)N)C(=O)N[C@H](CCCNC(=N)N)C(=O)NCCOCC(=O)N[C@H](CCCNC(=N)N)C(=O)N[C@@H](CCCNC(=N)N)C(=O)N[C@H](CCCNC(=N)N)C(=O)NCCCCC(=O)N[C@H](CCCNC(=N)N)C(=O)N[C@@H](CCCNC(=N)N)C(=O)N[C@H](CCCNC(=N)N)C(=O)N[C@@H](CCCNC(=N)N)C(=O)NCCCCC(=O)N[C@H](CCCNC(=N)N)C(=O)N[C@@H](CCCNC(=N)N)C(=O)N[C@H](CCCNC(=N)N)C(=O)N[C@@H](CCCNC(=N)N)C(N)=O [SEQ ID NO: 47, rRr-(Aea)-rRr-(Ava)-rRrR-(Ava)-rRrR-NH2] (H-[dR]R[dR][AEA][dR]R[dR][Ava][dR]R[dR]R[Ava][dR]R[dR]R-NH2) | 0.5 µg/mL (≈ 0.2 µM) | 1 µg/mL (≈ 0.4 µM) | 0.5 µg/mL (≈ 0.2 µM) | 1 µg/mL (≈ 0.4 µM) | 0.5 µg/mL (≈ 0.2 µM) |
